Values belong to the compound of their own block, whether it stands above or below them. Active and inactive are the calls of the source. The calls are words filed in the database; no cut-off is given here.
How the values were obtained:
[1] = species: Homo sapiens; experiment: Inhibition of MDH (unknown origin)
[2] = target: T1, Pyruvate carboxylase (Staphylococcus aureus (strain Mu50 / ATCC 700699), UniProt A0A0H3JRU9); experiment: Inhibition of Staphylococcus aureus Pyruvate carboxylase using pyruvate, HCO3-, ATP and NADH as substrate assessed as oxaloacetate formation by measuring NADH oxidation by spectrophotometry based malate dehydrogenase coupled enzyme assay
T1 sequence (A0A0H3JRU9 whole entry): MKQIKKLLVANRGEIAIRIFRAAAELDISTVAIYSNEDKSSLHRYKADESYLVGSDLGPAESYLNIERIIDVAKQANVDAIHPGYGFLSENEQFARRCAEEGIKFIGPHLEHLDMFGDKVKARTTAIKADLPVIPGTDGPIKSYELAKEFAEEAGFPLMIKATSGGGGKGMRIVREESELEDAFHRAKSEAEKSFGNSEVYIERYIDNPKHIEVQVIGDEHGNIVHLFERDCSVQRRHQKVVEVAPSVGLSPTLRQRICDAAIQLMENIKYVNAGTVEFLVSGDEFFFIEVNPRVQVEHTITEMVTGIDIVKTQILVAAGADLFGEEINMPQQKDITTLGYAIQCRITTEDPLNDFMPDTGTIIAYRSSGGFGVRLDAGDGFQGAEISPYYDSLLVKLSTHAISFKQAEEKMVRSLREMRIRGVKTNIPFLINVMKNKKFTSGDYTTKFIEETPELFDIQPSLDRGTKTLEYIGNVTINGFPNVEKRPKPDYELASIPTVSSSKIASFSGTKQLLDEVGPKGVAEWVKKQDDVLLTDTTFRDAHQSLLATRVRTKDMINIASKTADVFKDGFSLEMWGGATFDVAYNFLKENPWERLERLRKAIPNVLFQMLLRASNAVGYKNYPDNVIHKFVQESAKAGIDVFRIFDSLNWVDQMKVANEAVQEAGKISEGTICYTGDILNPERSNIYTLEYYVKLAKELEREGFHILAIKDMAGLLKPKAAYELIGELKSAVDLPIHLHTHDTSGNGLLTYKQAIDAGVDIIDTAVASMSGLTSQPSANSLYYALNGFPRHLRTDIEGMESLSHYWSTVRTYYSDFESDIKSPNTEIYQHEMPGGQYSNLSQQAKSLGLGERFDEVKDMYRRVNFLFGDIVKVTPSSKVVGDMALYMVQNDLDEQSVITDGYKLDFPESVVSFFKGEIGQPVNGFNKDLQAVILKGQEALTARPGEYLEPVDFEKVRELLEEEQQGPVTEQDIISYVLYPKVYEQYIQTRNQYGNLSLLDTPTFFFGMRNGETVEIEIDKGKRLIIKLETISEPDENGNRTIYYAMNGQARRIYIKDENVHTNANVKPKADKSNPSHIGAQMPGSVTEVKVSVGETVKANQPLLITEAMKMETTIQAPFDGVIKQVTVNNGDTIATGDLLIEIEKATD

[3] = target: T1, Pyruvate carboxylase; experiment: Non-competitive inhibition of Staphylococcus aureus pyruvate carboxylase assessed as inhibition constant pretreated with ATP followed by pyruvate, HCO3- and NADH addition by steady state kinetic analysis
[4] = target: Carbonic anhydrase 2 (Homo sapiens) (UniProt P00918); experiment: Inhibition of human CA2 at 200 uM
[5] = target: T1, Pyruvate carboxylase; experiment: Mixed type inhibition of Staphylococcus aureus pyruvate carboxylase assessed as inhibition constant pretreated with pyruvate followed by ATP, HCO3- and NADH addition by steady state kinetic analysis
[6] = test system: Pseudomonas syringae; experiment: Inhibition of Pseudomonas syringae guanidine carboxylase using urea as substrate at 200 uM by coupled enzyme assay
[7] = target: T1, Pyruvate carboxylase; experiment: Inhibition of Staphylococcus aureus pyruvate carboxylase by FVB based high-throughput fixed time assay
[8] = target: Macrophage metalloelastase (Homo sapiens) (UniProt P39900); experiment: Inhibition of MMP-12 (unknown origin) at 50 uM
[9] = target: T1, Pyruvate carboxylase; experiment: Mixed type inhibition of Staphylococcus aureus pyruvate carboxylase assessed as inhibition constant pretreated with ATP followed by pyruvate, HCO3- and NADH addition by steady state kinetic analysis

Macrophage metalloelastase (Homo sapiens), sequence (P39900 106-470 limits assumed): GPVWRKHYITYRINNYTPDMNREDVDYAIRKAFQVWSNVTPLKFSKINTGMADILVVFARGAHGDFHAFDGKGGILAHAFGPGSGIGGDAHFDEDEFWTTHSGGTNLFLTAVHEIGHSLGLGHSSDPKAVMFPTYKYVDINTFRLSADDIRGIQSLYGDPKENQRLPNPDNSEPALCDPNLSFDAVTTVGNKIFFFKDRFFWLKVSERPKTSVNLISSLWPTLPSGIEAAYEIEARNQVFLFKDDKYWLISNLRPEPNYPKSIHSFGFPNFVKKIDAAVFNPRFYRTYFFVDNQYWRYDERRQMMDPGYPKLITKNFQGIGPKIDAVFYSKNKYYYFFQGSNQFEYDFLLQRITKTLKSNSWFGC

inhibition [1]: inactive
IC50 [2]: 45 µM
Ki [3]: 38 µM
inhibition [4]: inactive
Ki [5]: 5.2 µM
inhibition [6]: inactive
IC50 [7]: 35 µM
inhibition [8]: inactive
Structure (SMILES): CN1C(=O)C(=O)N(CC(=O)c2cccs2)C1=O

inhibition [1]: inactive
IC50 [2]: 5.2 µM
Ki [3]: 14 µM
inhibition [4]: inactive
Ki [5]: 1.8 µM
inhibition [6]: inactive
inhibition [8]: inactive
Structure (SMILES): CCOC(=O)CN1C(=O)C(=O)N(Cc2cccs2)C1=O

inhibition [1]: inactive
IC50 [2]: 35 µM
Structure (SMILES): CC(c1ccccc1)N1C(=O)C(=O)N(c2ccccc2)C1=O (configuration not stated)

inhibition [1]: inactive
IC50 [2]: 7.9 µM
inhibition [4]: inactive
inhibition [6]: inactive
inhibition [8]: inactive
Structure (SMILES): CCOC(=O)CN1C(=O)C(=O)N(CCc2cccs2)C1=O

inhibition [1]: inactive
IC50 [2]: 5.1 µM
inhibition [4]: inactive
inhibition [6]: inactive
inhibition [8]: inactive
Structure (SMILES): CCOC(=O)CN1C(=O)C(=O)N(c2ccccc2)C1=O

inhibition [1]: inactive
IC50 [2]: 30 µM
Ki [3]: 140 µM
inhibition [4]: inactive
Ki [5]: 9 µM
inhibition [6]: inactive
inhibition [8]: inactive
Structure (SMILES): O=C(O)CN1C(=O)C(=O)N(Cc2ccccc2)C1=O

inhibition [1]: inactive
IC50 [2]: 3.4 µM
inhibition [4]: inactive
inhibition [6]: inactive
inhibition [8]: inactive
Structure (SMILES): CCOC(=O)CN1C(=O)C(=O)N(c2ccc(F)cc2)C1=O

inhibition [1]: inactive
IC50 [2]: 92 µM
Structure (SMILES): O=C1C(=O)N(c2ccccc2)C(=O)N1CCc1cccs1

inhibition [1]: inactive
IC50 [2]: 64 µM
Ki [3]: 150 µM
inhibition [4]: inactive
Ki [5]: 24 µM
inhibition [6]: inactive
inhibition [8]: inactive
Structure (SMILES): O=C1C(=O)N(c2ccccc2)C(=O)N1Cc1ccccc1

Second part, the compound before the results:

Structure (SMILES): O=C1C(=O)N(c2ccc(Br)cc2)C(=O)N1Cc1ccccc1
inhibition [1]: inactive
IC50 [2]: 290 µM

Structure (SMILES): CCOC(=O)CN1C(=O)C(=O)N(CC(=O)OCC)C1=O
inhibition [1]: inactive
IC50 [2]: 9 µM

Structure (SMILES): CCOC(=O)CCN1C(=O)C(=O)N(c2ccc(F)cc2)C1=O
inhibition [1]: inactive
IC50 [2]: 29 µM
inhibition [4]: inactive
inhibition [6]: inactive
inhibition [8]: inactive

Structure (SMILES): COc1ccc(N2C(=O)C(=O)N(Cc3ccccc3)C2=O)cc1
inhibition [1]: inactive
IC50 [2]: 17 µM
inhibition [4]: inactive
inhibition [6]: inactive
inhibition [8]: inactive

Structure (SMILES): O=C1C(=O)N(c2ccccc2)C(=O)N1CCc1ccccc1
inhibition [1]: inactive
IC50 [2]: 370 µM

Structure (SMILES): COC(=O)CCN1C(=O)C(=O)N(Cc2ccccc2)C1=O
inhibition [1]: inactive
IC50 [2]: 68 µM

Structure (SMILES): CCOC(=O)CN1C(=O)C(=O)N(CCc2ccccc2)C1=O
inhibition [1]: inactive
IC50 [2]: 9.3 µM
inhibition [4]: inactive
inhibition [6]: inactive
inhibition [8]: inactive

Structure (SMILES): CCOC(=O)CN1C(=O)C(=O)N(Cc2ccco2)C1=O
inhibition [1]: inactive
IC50 [2]: 12 µM
inhibition [4]: inactive
inhibition [6]: inactive
inhibition [8]: inactive

Structure (SMILES): CCOC(=O)CN1C(=O)C(=O)N(Cc2ccccc2)C1=O
inhibition [1]: inactive
IC50 [2]: 7.3 µM
inhibition [4]: inactive
Ki [5]: 0.58 µM
inhibition [6]: inactive
Ki [9]: 7 µM
inhibition [8]: inactive

Structure (SMILES): CCCOC(=O)CN1C(=O)C(=O)N(c2ccccc2)C1=O
inhibition [1]: inactive
IC50 [2]: 5 µM
inhibition [4]: inactive
inhibition [6]: inactive
inhibition [8]: inactive

Structure (SMILES): COC(=O)CN1C(=O)C(=O)N(c2ccccc2)C1=O
inhibition [1]: inactive
IC50 [2]: 3.5 µM

Structure (SMILES): O=C1C(=O)N(C2CCCc3ccccc32)C(=O)N1c1ccccc1 (configuration not stated)
inhibition [1]: inactive
IC50 [2]: 59 µM

— ChEMBL document CHEMBL5584270, “Synthesis and Evaluation of 1,3-Disubstituted Imidazolidine-2,4,5-triones as Inhibitors of Pyruvate Carboxylase” (ACS Med Chem Lett, 2024)
